The values that follow come from PubChem BioAssay AID2740 (NMMLSC, 2010).

The source made the active and inactive calls.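 The calls were made as follows: active = compounds whose fitted half-maximal concentration for changing the GFP signal is at or below a set limit; inactive = the rest.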

This assay in a line: TOR pathway RPL19A-GFP modulators, concentration series – cell-based, S. cerevisiae, flow cytometry, MLPCN hits, dose response (AID 2740).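 Also: background is signal of the same compound in parental non-GFP s288c yeast.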 Particulars: S. cerevisiae RPL19A-GFP strain, flow cytometry fluorescence, 3 h; at 33 µM (top of the series).
As for `COc1ccccc1[C@@]1(C)ON(c2ccccc2C(F)(F)F)C1=O`, the GFP fluorescence, lower = active (kMESF (background-subtracted)) was 22.7 (inactive).
As for `Cc1ccc(C(=O)NNC(=S)NC(=O)c2ccco2)cc1`, the GFP fluorescence, lower = active (kMESF (background-subtracted)) is 49.1 (inactive).
On to `O=C1N(c2ccccc2C(F)(F)F)O[C@@]1(c1ccccc1)C1CCCC1`, for which the GFP fluorescence, lower = active (kMESF (background-subtracted)) was 46 (inactive).
In the case of `COc1cc(N2C(=O)C=CC2=O)c(OC)cc1Cl`, the GFP fluorescence, lower = active (kMESF (background-subtracted)) was 18.8 (inactive).
Take `CCN(CC)c1ccc2cc(-c3nc(-c4ccc(OC)cc4)cs3)c(=O)oc2c1`: the GFP fluorescence, lower = active (kMESF (background-subtracted)) is 40 (inactive).
As to `O=C(Nc1nnc(-c2ccc3c(c2)CCCC3)o1)c1ccc(Cl)cc1Cl`, the GFP fluorescence, lower = active (kMESF (background-subtracted)) is 37.2 (inactive).
In the case of `Cc1ccc(-c2nc(N)c3c(-c4ccc(C)cc4)nn(C(C)(C)C)c3n2)cc1`, the GFP fluorescence, lower = active (kMESF (background-subtracted)) was 43.1 (inactive).
Consider `Cc1cc(NC(=O)c2cccnc2Cl)ccc1NC(=O)c1cc2ccccc2o1`, for which the GFP fluorescence, lower = active (kMESF (background-subtracted)) was 39.6 (inactive).
With `Cc1c(C)c2ccc(Oc3ccc([N+](=O)[O-])cc3C(F)(F)F)c(C)c2oc1=O`, the GFP fluorescence, lower = active (kMESF (background-subtracted)) is 39.5 (inactive).
On to `CC(C)(C)C(=O)NC(=S)NNC(=O)c1ccc(-c2ccccc2)cc1`, for which the GFP fluorescence, lower = active (kMESF (background-subtracted)) was 40.7 (inactive).
Turning to `CCOc1ccc(NC2=C(Cl)C(=O)N(Cc3ccccc3)C2=O)cc1`, the GFP fluorescence, lower = active (kMESF (background-subtracted)) is 44.3 (inactive).
`Cc1ccc(/C=N/Nc2ncc(Cl)cc2Cl)s1`: the GFP fluorescence, lower = active (kMESF (background-subtracted)) is 43.1 (inactive).
Regarding `CCc1ccc(/C=C/C(=O)c2cc(Br)ccc(=O)c2O)cc1`, the GFP fluorescence, lower = active (kMESF (background-subtracted)) was 40.6 (inactive).
For the compound `O=c1c(-c2ccc(Cl)cc2)[n+]([O-])c2ccccc2n1O`, the GFP fluorescence, lower = active (kMESF (background-subtracted)) was 30.9 (inactive).
The same measure for `CC(=O)Oc1ccc(/C=c2\sc3ncnn3c2=O)cc1`: 50 (inactive); for `CC(=O)OC[C@]12CC[C@H]3[C@@](C)(CC[C@H]4C(C)(C)CCC[C@]34C)[C@@H]1C[C@H](C1=CC(=O)O[C@@H]1OC(C)=O)O2`: 18.7 (inactive); for `O=[N+]([O-])c1cnc(Sc2ccncn2)s1`: 31.1 (inactive).
Turning to `c1ccc(-c2cccc(-c3ccccn3)n2)nc1`, the GFP fluorescence, lower = active (kMESF (background-subtracted)) is 36.2 (inactive).
Take `Nc1c(C(=O)c2cccs2)sc2nsc(SCCN3CCCCC3)c12`: the GFP fluorescence, lower = active (kMESF (background-subtracted)) is 38.1 (inactive).
The same measure for `O=C(Nc1cccc(C(F)(F)F)c1)Oc1ccc(Cl)c2cccnc12`: 39.4 (inactive).
Consider `CC(C)Cn1c(=O)c(C(=O)Nc2ccncc2)c(O)c2ccccc21`, for which the GFP fluorescence, lower = active (kMESF (background-subtracted)) was 5.71 (inactive).
As to `Oc1c(I)cc(I)c2cccnc12`, the GFP fluorescence, lower = active (kMESF (background-subtracted)) is 23 (inactive).
The same measure for `CCN1C(=O)/C(=C\C(=O)c2cccs2)c2cc(Br)ccc21`: 34.5 (inactive); for `COc1ccc([C@@]2(C(C)C)ON(c3ccccc3C(F)(F)F)C2=O)cc1`: 45.9 (inactive); for `Cn1c(=O)c(C(=O)NNC(=O)c2ccc(Br)cc2)c(O)c2ccccc21`: 22.3 (inactive).
On to `COc1ccc([N+](=O)[O-])c(S(=O)(=O)c2ccccc2)n1`, for which the GFP fluorescence, lower = active (kMESF (background-subtracted)) is 39.1 (inactive).
For the compound `O=C(Cc1ccc(Cl)cc1)NNC(=S)NC(=O)c1cccs1`, the GFP fluorescence, lower = active (kMESF (background-subtracted)) is 45.9 (inactive).
The same measure for `COc1cc(/C=C2\C(=O)ON=C2c2ccc(Cl)cc2)ccc1O`: 40.8 (inactive); for `O=[N+]([O-])c1cc(CN2CCN(c3cccc(C(F)(F)F)c3)CC2)c2cccnc2c1O`: 22.7 (inactive); for `CN1CCN(C(c2ccc(C(F)(F)F)cc2)c2ccc3cccnc3c2O)CC1` (centres undefined): 29.6 (inactive).
The same measure for `COc1ccc(C(=O)NC(=S)NNC(=O)c2cnccn2)cc1OC`: 38.6 (inactive); for `CC1=NOC(=O)/C1=C\c1ccc(-c2cc(Cl)ccc2Cl)o1`: 39 (inactive).
With `O=C1c2cccc3c([N+](=O)[O-])ccc(c23)C(=O)N1O`, the GFP fluorescence, lower = active (kMESF (background-subtracted)) was 49.9 (inactive).
On to `COCCN1C(=O)/C(=C/c2ccc(N3CCCC3)cc2C)SC1=S`, for which the GFP fluorescence, lower = active (kMESF (background-subtracted)) is 43 (inactive).
`O=C1c2ccccc2C(=O)C2OC12` (centres undefined): the GFP fluorescence, lower = active (kMESF (background-subtracted)) is 29.2 (inactive).
In the case of `COc1ccc(C2=CC(=O)N(Nc3ccccc3)C2=O)cc1`, the GFP fluorescence, lower = active (kMESF (background-subtracted)) is 34.6 (inactive).
`Cc1[nH][nH]c(=O)c1C(c1ccc(-c2ccc(Cl)c(Cl)c2)o1)c1c(C)[nH][nH]c1=O`: the GFP fluorescence, lower = active (kMESF (background-subtracted)) is 43.4 (inactive).
For `COc1cccc(C(=O)Nc2nnc(-c3ccc(Cl)cc3)o2)c1`, the GFP fluorescence, lower = active (kMESF (background-subtracted)) is 35.5 (inactive).
As for `O=C1Nc2ccc(Br)cc2/C1=C/C(=O)c1ccc2c(c1)OCO2`, the GFP fluorescence, lower = active (kMESF (background-subtracted)) was 40.6 (inactive).
For `Cc1sc(/C=C2\C(=O)ON=C2c2ccccc2)cc1Br`, the GFP fluorescence, lower = active (kMESF (background-subtracted)) is 45 (inactive).
Turning to `O=[N+]([O-])c1ccc(S(=O)(=O)c2ccccc2)nc1`, the GFP fluorescence, lower = active (kMESF (background-subtracted)) was 29.6 (inactive).
On to `CCC(=O)Oc1oc(-c2ccccc2)nc1C=Nc1ccccc1OC`, for which the GFP fluorescence, lower = active (kMESF (background-subtracted)) is 41.6 (inactive).
With `COc1ccccc1N=Cc1nc(-c2ccccc2)oc1OC(C)=O`, the GFP fluorescence, lower = active (kMESF (background-subtracted)) is 46.8 (inactive).
For `COc1ccc(C(=O)/C=C2/C(=O)Nc3ccccc32)c(OC)c1`, the GFP fluorescence, lower = active (kMESF (background-subtracted)) was 37.3 (inactive).
For the compound `COc1ccccc1-c1nc2s/c(=C\c3cccs3)c(=O)n2n1`, the GFP fluorescence, lower = active (kMESF (background-subtracted)) was 36.9 (inactive).
For the compound `CCOc1ccccc1/C=c1\sc2ncnn2c1=O`, the GFP fluorescence, lower = active (kMESF (background-subtracted)) was 30.1 (inactive).
`CC1=C/C(=N\OS(=O)(=O)c2ccccc2)C(C(C)C)=CC1=O`: the GFP fluorescence, lower = active (kMESF (background-subtracted)) was 21.4 (inactive).
With `CC1(C)OC(c2ccccc2)=C/C(=C/C=C2C(=O)NC(=S)NC2=O)O1`, the GFP fluorescence, lower = active (kMESF (background-subtracted)) was 37 (inactive).
With `COc1cc(SSc2cc(OC)cc([N+](=O)[O-])c2N)c(N)c([N+](=O)[O-])c1`, the GFP fluorescence, lower = active (kMESF (background-subtracted)) is 32.6 (inactive).
Take `O=c1oc(/C=C/c2ccc([N+](=O)[O-])s2)nc2ccccc12`: the GFP fluorescence, lower = active (kMESF (background-subtracted)) is 55 (inactive).
In the case of `O=C(/C=C/c1cc(Br)ccc1O)c1ccco1`, the GFP fluorescence, lower = active (kMESF (background-subtracted)) is 33.5 (inactive).
As to `Cc1ccc(/C=C2\C(=O)NC(=S)N(c3ccc(F)cc3)C2=O)s1`, the GFP fluorescence, lower = active (kMESF (background-subtracted)) was 38 (inactive).
Regarding `O=C(O)c1ccc2c(c1)C(=O)/C(=C/c1ccccc1)C2=O`, the GFP fluorescence, lower = active (kMESF (background-subtracted)) is 36.8 (inactive).
The same measure for `Cc1c(N2C(=O)/C(=C\c3ccccc3O)SC2=S)c(=O)n(-c2ccccc2)n1C`: 38.7 (inactive); for `O=C(NC(=S)NNC(=O)c1cnccn1)c1ccc(F)cc1`: 31.9 (inactive).
Turning to `CCCOc1ccc(C(=O)NNC(=S)NC(=O)c2ccco2)cc1`, the GFP fluorescence, lower = active (kMESF (background-subtracted)) is 51 (inactive).
`N/C(=N\OC(=O)c1cc(Br)ccc1Cl)c1ccccn1`: the GFP fluorescence, lower = active (kMESF (background-subtracted)) is 39.8 (inactive).
The same measure for `CC(C)[C@]1(c2ccc(Cl)cc2)ON(c2ccccc2C(F)(F)F)C1=O`: 40.6 (inactive); for `COc1ccc(OCC(=O)NNC(=S)NC(=O)C2CCCCC2)cc1`: 38 (inactive); for `N#Cc1c2ccc([N+](=O)[O-])cc2[n+]([O-])n1-c1ccccc1`: 51.8 (inactive).
In the case of `CCN(CC)c1ccc(/C=C2\C(=O)c3ccc(C(=O)O)cc3C2=O)cc1`, the GFP fluorescence, lower = active (kMESF (background-subtracted)) was 51.5 (inactive).
In the case of `Oc1ccc(N=Nc2ccccc2)o1`, the GFP fluorescence, lower = active (kMESF (background-subtracted)) is 42.3 (inactive).
`CCCN1CCc2c(sc(NC(=S)NC(=O)c3ccccc3)c2C#N)C1`: the GFP fluorescence, lower = active (kMESF (background-subtracted)) is 47.6 (inactive).
Turning to `O=C(OCn1ncc(Br)c(Br)c1=O)c1ccccc1Cl`, the GFP fluorescence, lower = active (kMESF (background-subtracted)) was 44.4 (inactive).
`O=C1C2C3C=CC(CO)(O3)C2C(=O)N1c1ccccc1-c1ccccc1` (centres undefined): the GFP fluorescence, lower = active (kMESF (background-subtracted)) is 20.9 (inactive).
Regarding `O=C(/C=C/c1ccccc1)NC(=S)NNC(=O)Cc1cccs1`, the GFP fluorescence, lower = active (kMESF (background-subtracted)) is 45.5 (inactive).
For `Cc1[nH][nH]c(=O)c1C(c1ccc(-c2ccc(Cl)cc2)o1)c1c(C)[nH][nH]c1=O`, the GFP fluorescence, lower = active (kMESF (background-subtracted)) is 41.2 (inactive).
With `COc1ccc(-c2cc(C(F)(F)F)nc(S(C)(=O)=O)n2)cc1`, the GFP fluorescence, lower = active (kMESF (background-subtracted)) is 44.7 (inactive).
For `O=C(NC(=S)NNC(=O)c1cnccn1)c1ccc(Cl)cc1`, the GFP fluorescence, lower = active (kMESF (background-subtracted)) is 48.5 (inactive).
The same measure for `CC[C@]1(c2ccccc2C)ON(c2ccccc2C(F)(F)F)C1=O`: 40 (inactive).
As for `Cc1ccccc1C(=O)NNC(=S)NC(=O)c1ccc(Cl)cc1Cl`, the GFP fluorescence, lower = active (kMESF (background-subtracted)) was 45.9 (inactive).
The same measure for `O=C(O)c1cc[c]([Hg][Cl])cc1`: 15.7 (inactive).
As for `N#Cc1cc([N+](=O)[O-])c(-n2nnc3ccccc32)c([N+](=O)[O-])c1`, the GFP fluorescence, lower = active (kMESF (background-subtracted)) is 43.3 (inactive).
Consider `CCOc1cc(C=C2C(=O)c3ccccc3C2=O)ccc1OCC(=O)Nc1ccc(C)cc1`, for which the GFP fluorescence, lower = active (kMESF (background-subtracted)) was 43.8 (inactive).
